Key:
Atrogin-1 and MuRF-1 = test: qPCR of muscle atrophy regulators in Dex-treated C2C12 myotubes; format: cell-based, mouse
Protocol: (§1) C2C12 murine skeletal muscle myoblasts were obtained from Koram Biotech (Republic of Korea). The cells were maintained in DMEM growth medium supplemented with 10% FBS, 1% penicillin, and streptomycin. When myoblasts proliferated to approximately 90%, they were differentiated into muscle fibers by treating them with DMEM differentiation medium supplemented with 2% HS, 1% penicillin, and streptomycin for 96 hours. Differentiated muscle fibers were treated with 10 μM Dex for 24 hours to induce sarcopenia. To evaluate the degree of differentiation of muscle cells, differentiating myoblasts were treated with the corresponding compound in differentiation medium for 24 or 48 hours.
For quantitative real-time PCR, transcript levels of genes of interest were analyzed using the StepOnePlus real-time PCR system (Applied Biosystems, UK). Total RNA was reverse transcribed to prepare cDNA using AccuPower® RT PreMix (Bioneer Corporation). The obtained cDNA was subjected to real-time PCR according to the manufacturer's instructions with the following changes. PCR was performed in triplicate in a total volume of 20 μL 2× Power SYBR Green PCR Master Mix (Enzynomics, Republic of Korea) containing 200 nM (final concentration) of each specific primer and 1 μL of cDNA synthesized from 1 μg of total RNA. PCR amplification consisted of incubating the mixture at 95° C. for 10 minutes, followed by 40 cycles of denaturation, annealing, and extension. Denaturation was performed at 95° C. for 15 s, annealing was performed at 60° C. for 1 min, and extension was performed at 72° C. for 20 s with fluorescence detection at 72° C. after each cycle. After the final cycle, melting point analysis of all samples was performed within the range of 60 to 95° C. using continuous fluorescence detection. Specific cDNA samples were included in each run and used as reference material for comparison between runs. The expression level of GAPDH was used to calculate and normalize the expression levels of all other genes. Results were expressed as relative expression levels for each gene. The synthesized cDNA was amplified by quantitative real-time PCR (qRT-PCR) or standard PCR.

[1] = test system: Dex-treated C2C12 myotubes; test: Dex-induced myotube atrophy, myosin heavy chain immunostaining, myotube diameter; format: cell-based, mouse; conditions: 10 μM Dex 24 h; for diameter of muscle fibers (C2C12 myotubes): zileuton 10 µM, wedelolactone 20 μM (FIGS. 2, 3)
Protocol: as §1
Muscle fibers were stained using immunochemical staining using myosin heavy chain antibody. Specifically, the muscle fibers were rinsed three times with PBS and then fixed with a 3.7% formaldehyde solution. After rinsing with PBS, a transparency process was performed with 0.2% TritonX-100 solution, and additional rinsing was performed with PBS. They were blocked with 1% bovine serum albumin solution (1% BSA in PBS-T) and incubated with primary antibody overnight at 4° C. After washing with PBS, the secondary antibody was treated for 1 hour. Afterwards, the myotubes were counterstained with 1 μM DAPI in PBS. Fluorescence images of stained myotubes in five different areas were obtained using a DMI 3000 B microscope (Leica, Germany) and analyzed using ImageJ 1.52 software (National Institutes of Health, Bethesda, MD, USA). Myotubes were classified as myosin heavy chain positive cells containing four or more nuclei, and the diameter of muscle fibers containing four or more nuclei was measured.

Structure (SMILES)	Atrogin-1 expression (mRNA, qPCR) (Atrogin-1 and MuRF-1)	myotube atrophy in Dex-treated myotubes ([1]; C2C12 myotubes)	MuRF-1 expression (mRNA, qPCR) (Atrogin-1 and MuRF-1)	diameter of muscle fibers (C2C12 myotubes) [1]
CCCCC/C=C\C[C@@H](O)/C=C/C=C/C=C\[C@@H](O)CCCC(=O)O [LTB4, Leukotriene B4]	did not affect	did not affect		
CC(c1cc2ccccc2s1)N(O)C(N)=O (centres unmarked) [zileuton, Zileuton]	decreased		decreased	recovered
COc1cc(O)c2c(c1)oc(=O)c1c3cc(O)c(O)cc3oc21 [wedelolactone, Wedelolactone]	decreased		decreased	recovered

Source: patent US20250332143A1, “COMPOSITION COMPRISING ALOX5 INHIBITOR FOR PREVENTING OR TREATING SARCOPENIA” (PLUTO Inc., priority 2022, published 2025)
